Patent publication US8192962B2, “Processes for detecting toxic substances” (Daikin Industries, Ltd., priority 2001, dated 2012)

Test system: Stress protein genes
Test: DNA chip mRNA expression in yeast, stress protein genes (Table 6)
Type: cell-based, Saccharomyces cerevisiae S288C
In short: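 In this screen, yeast in logarithmic growth are challenged for two hours with a toxic substance at a non-lethal inhibitory concentration. Their mRNA, converted to Cy3- or Cy5-labeled cDNA, hybridizes at 65° C. to a chip spanning every yeast gene, and expression is expressed as a ratio to untreated cells.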

Compound: [Cl][Cd][Cl] [(2), CdCl2]
- The level of expressed mRNA in the presence of chemical substance/The level of expressed mRNA in the absence of chemical substance (yeast gene YAL005C): 1.6
- The level of expressed mRNA in the presence of chemical substance/The level of expressed mRNA in the absence of chemical substance (yeast gene YAL015C): 1.1
- The level of expressed mRNA in the presence of chemical substance/The level of expressed mRNA in the absence of chemical substance (yeast gene YBL075C): 4.3
- The level of expressed mRNA in the presence of chemical substance/The level of expressed mRNA in the absence of chemical substance (yeast gene YBL093C): 2.0
- The level of expressed mRNA in the presence of chemical substance/The level of expressed mRNA in the absence of chemical substance (yeast gene YBR044C): 1.4
- The level of expressed mRNA in the presence of chemical substance/The level of expressed mRNA in the absence of chemical substance (yeast gene YBR054W): 1.8
- The level of expressed mRNA in the presence of chemical substance/The level of expressed mRNA in the absence of chemical substance (yeast gene YBR067C): 2.5
- The level of expressed mRNA in the presence of chemical substance/The level of expressed mRNA in the absence of chemical substance (yeast gene YBR072W): 17.4
- The level of expressed mRNA in the presence of chemical substance/The level of expressed mRNA in the absence of chemical substance (yeast gene YBR126C): 1.9
- The level of expressed mRNA in the presence of chemical substance/The level of expressed mRNA in the absence of chemical substance (yeast gene YBR169C): 2.1
- The level of expressed mRNA in the presence of chemical substance/The level of expressed mRNA in the absence of chemical substance (yeast gene YCL035C): 2.3
- The level of expressed mRNA in the presence of chemical substance/The level of expressed mRNA in the absence of chemical substance (yeast gene YCR021C): 1.4
- The level of expressed mRNA in the presence of chemical substance/The level of expressed mRNA in the absence of chemical substance (yeast gene YCR060W): 0.7
- The level of expressed mRNA in the presence of chemical substance/The level of expressed mRNA in the absence of chemical substance (yeast gene YCR083W): 2.8
- The level of expressed mRNA in the presence of chemical substance/The level of expressed mRNA in the absence of chemical substance (yeast gene YDL022W): 2.6
- The level of expressed mRNA in the presence of chemical substance/The level of expressed mRNA in the absence of chemical substance (yeast gene YDL025C): 5.0
- The level of expressed mRNA in the presence of chemical substance/The level of expressed mRNA in the absence of chemical substance (yeast gene YDR033W): 1.3
- The level of expressed mRNA in the presence of chemical substance/The level of expressed mRNA in the absence of chemical substance (yeast gene YDR077W): 1.0
- The level of expressed mRNA in the presence of chemical substance/The level of expressed mRNA in the absence of chemical substance (yeast gene YDR098C): 1.4
- The level of expressed mRNA in the presence of chemical substance/The level of expressed mRNA in the absence of chemical substance (yeast gene YDR155C): 1.5
- The level of expressed mRNA in the presence of chemical substance/The level of expressed mRNA in the absence of chemical substance (yeast gene YDR258C): 2.3
- The level of expressed mRNA in the presence of chemical substance/The level of expressed mRNA in the absence of chemical substance (yeast gene YDR293C): 0.9
- The level of expressed mRNA in the presence of chemical substance/The level of expressed mRNA in the absence of chemical substance (yeast gene YDR436W): 0.9
- The level of expressed mRNA in the presence of chemical substance/The level of expressed mRNA in the absence of chemical substance (yeast gene YDR513W): 2.5
- The level of expressed mRNA in the presence of chemical substance/The level of expressed mRNA in the absence of chemical substance (yeast gene YDR519W): 3.2
- The level of expressed mRNA in the presence of chemical substance/The level of expressed mRNA in the absence of chemical substance (yeast gene YEL030W): 0.9
- The level of expressed mRNA in the presence of chemical substance/The level of expressed mRNA in the absence of chemical substance (yeast gene YEL039C): 0.7
- The level of expressed mRNA in the presence of chemical substance/The level of expressed mRNA in the absence of chemical substance (yeast gene YER042W): 2.2
- The level of expressed mRNA in the presence of chemical substance/The level of expressed mRNA in the absence of chemical substance (yeast gene YER057C): 2.0
- The level of expressed mRNA in the presence of chemical substance/The level of expressed mRNA in the absence of chemical substance (yeast gene YER103W): 2.1
- The level of expressed mRNA in the presence of chemical substance/The level of expressed mRNA in the absence of chemical substance (yeast gene YER125W): 1.1
- The level of expressed mRNA in the presence of chemical substance/The level of expressed mRNA in the absence of chemical substance (yeast gene YFL014W): 5.1
- The level of expressed mRNA in the presence of chemical substance/The level of expressed mRNA in the absence of chemical substance (yeast gene YFL016C): 1.0
- The level of expressed mRNA in the presence of chemical substance/The level of expressed mRNA in the absence of chemical substance (yeast gene YFL020C): 1.1
- The level of expressed mRNA in the presence of chemical substance/The level of expressed mRNA in the absence of chemical substance (yeast gene YFR052W): 1.6
- The level of expressed mRNA in the presence of chemical substance/The level of expressed mRNA in the absence of chemical substance (yeast gene YGL073W): 2.1
- The level of expressed mRNA in the presence of chemical substance/The level of expressed mRNA in the absence of chemical substance (yeast gene YGL115W): 0.6
- The level of expressed mRNA in the presence of chemical substance/The level of expressed mRNA in the absence of chemical substance (yeast gene YGL181W): 0.9
- The level of expressed mRNA in the presence of chemical substance/The level of expressed mRNA in the absence of chemical substance (yeast gene YGR088W): 1.2
- The level of expressed mRNA in the presence of chemical substance/The level of expressed mRNA in the absence of chemical substance (yeast gene YHL028W): 0.8
- The level of expressed mRNA in the presence of chemical substance/The level of expressed mRNA in the absence of chemical substance (yeast gene YHL046C): 1.7
- The level of expressed mRNA in the presence of chemical substance/The level of expressed mRNA in the absence of chemical substance (yeast gene YHR030C): 0.8
- The level of expressed mRNA in the presence of chemical substance/The level of expressed mRNA in the absence of chemical substance (yeast gene YHR057C): 1.2
- The level of expressed mRNA in the presence of chemical substance/The level of expressed mRNA in the absence of chemical substance (yeast gene YHR104W): 4.1
- The level of expressed mRNA in the presence of chemical substance/The level of expressed mRNA in the absence of chemical substance (yeast gene YIL011W): 0.5
- The level of expressed mRNA in the presence of chemical substance/The level of expressed mRNA in the absence of chemical substance (yeast gene YIL033C): 1.3
- The level of expressed mRNA in the presence of chemical substance/The level of expressed mRNA in the absence of chemical substance (yeast gene YIR037W): 2.2
- The level of expressed mRNA in the presence of chemical substance/The level of expressed mRNA in the absence of chemical substance (yeast gene YIR038C): 3.5
- The level of expressed mRNA in the presence of chemical substance/The level of expressed mRNA in the absence of chemical substance (yeast gene YJL128C): 1.4
- The level of expressed mRNA in the presence of chemical substance/The level of expressed mRNA in the absence of chemical substance (yeast gene YJL158C): 0.6
- The level of expressed mRNA in the presence of chemical substance/The level of expressed mRNA in the absence of chemical substance (yeast gene YJL159W): 1.3
- The level of expressed mRNA in the presence of chemical substance/The level of expressed mRNA in the absence of chemical substance (yeast gene YJL165C): 0.8
- The level of expressed mRNA in the presence of chemical substance/The level of expressed mRNA in the absence of chemical substance (yeast gene YJR045C): 1.9
- The level of expressed mRNA in the presence of chemical substance/The level of expressed mRNA in the absence of chemical substance (yeast gene YJR090C): 1.0
- The level of expressed mRNA in the presence of chemical substance/The level of expressed mRNA in the absence of chemical substance (yeast gene YKL161C): 0.8
- The level of expressed mRNA in the presence of chemical substance/The level of expressed mRNA in the absence of chemical substance (yeast gene YKL163W): 1.4
- The level of expressed mRNA in the presence of chemical substance/The level of expressed mRNA in the absence of chemical substance (yeast gene YKL164C): 1.1
- The level of expressed mRNA in the presence of chemical substance/The level of expressed mRNA in the absence of chemical substance (yeast gene YKL210W): 1.7
- The level of expressed mRNA in the presence of chemical substance/The level of expressed mRNA in the absence of chemical substance (yeast gene YKR053C): 2.0
- The level of expressed mRNA in the presence of chemical substance/The level of expressed mRNA in the absence of chemical substance (yeast gene YLL024C): 1.6
- The level of expressed mRNA in the presence of chemical substance/The level of expressed mRNA in the absence of chemical substance (yeast gene YLL026W): 2.9
- The level of expressed mRNA in the presence of chemical substance/The level of expressed mRNA in the absence of chemical substance (yeast gene YLL039C): 1.0
- The level of expressed mRNA in the presence of chemical substance/The level of expressed mRNA in the absence of chemical substance (yeast gene YLL060C): 4.2
- The level of expressed mRNA in the presence of chemical substance/The level of expressed mRNA in the absence of chemical substance (yeast gene YLR006C): 0.7
- The level of expressed mRNA in the presence of chemical substance/The level of expressed mRNA in the absence of chemical substance (yeast gene YLR109W): 2.9
- The level of expressed mRNA in the presence of chemical substance/The level of expressed mRNA in the absence of chemical substance (yeast gene YLR259C): 1.0
- The level of expressed mRNA in the presence of chemical substance/The level of expressed mRNA in the absence of chemical substance (yeast gene YML007W): 0.8
- The level of expressed mRNA in the presence of chemical substance/The level of expressed mRNA in the absence of chemical substance (yeast gene YML070W): 1.7
- The level of expressed mRNA in the presence of chemical substance/The level of expressed mRNA in the absence of chemical substance (yeast gene YMR021C): 0.7
- The level of expressed mRNA in the presence of chemical substance/The level of expressed mRNA in the absence of chemical substance (yeast gene YMR173W): 3.6
- The level of expressed mRNA in the presence of chemical substance/The level of expressed mRNA in the absence of chemical substance (yeast gene YMR186W): 1.4
- The level of expressed mRNA in the presence of chemical substance/The level of expressed mRNA in the absence of chemical substance (yeast gene YNL064C): 1.8
- The level of expressed mRNA in the presence of chemical substance/The level of expressed mRNA in the absence of chemical substance (yeast gene YNL160W): 3.7
- The level of expressed mRNA in the presence of chemical substance/The level of expressed mRNA in the absence of chemical substance (yeast gene YNL241C): 2.5
- The level of expressed mRNA in the presence of chemical substance/The level of expressed mRNA in the absence of chemical substance (yeast gene YNR076W): 1.3
- The level of expressed mRNA in the presence of chemical substance/The level of expressed mRNA in the absence of chemical substance (yeast gene YOL064C): 2.1
- The level of expressed mRNA in the presence of chemical substance/The level of expressed mRNA in the absence of chemical substance (yeast gene YOL161C): 1.1
- The level of expressed mRNA in the presence of chemical substance/The level of expressed mRNA in the absence of chemical substance (yeast gene YOR008C): 0.8
- The level of expressed mRNA in the presence of chemical substance/The level of expressed mRNA in the absence of chemical substance (yeast gene YOR009W): 0.8
- The level of expressed mRNA in the presence of chemical substance/The level of expressed mRNA in the absence of chemical substance (yeast gene YOR010C): 0.7
- The level of expressed mRNA in the presence of chemical substance/The level of expressed mRNA in the absence of chemical substance (yeast gene YOR027W): 2.4
- The level of expressed mRNA in the presence of chemical substance/The level of expressed mRNA in the absence of chemical substance (yeast gene YOR208W): 1.0
- The level of expressed mRNA in the presence of chemical substance/The level of expressed mRNA in the absence of chemical substance (yeast gene YPL059W): 0.9
- The level of expressed mRNA in the presence of chemical substance/The level of expressed mRNA in the absence of chemical substance (yeast gene YPL106C): 1.7
- The level of expressed mRNA in the presence of chemical substance/The level of expressed mRNA in the absence of chemical substance (yeast gene YPL140C): 1.3
- The level of expressed mRNA in the presence of chemical substance/The level of expressed mRNA in the absence of chemical substance (yeast gene YPL194W): 1.4
- The level of expressed mRNA in the presence of chemical substance/The level of expressed mRNA in the absence of chemical substance (yeast gene YPL223C): 20.0
- The level of expressed mRNA in the presence of chemical substance/The level of expressed mRNA in the absence of chemical substance (yeast gene YPL240C): 1.4
- The level of expressed mRNA in the presence of chemical substance/The level of expressed mRNA in the absence of chemical substance (yeast gene YPR005C): 0.8
- The level of expressed mRNA in the presence of chemical substance/The level of expressed mRNA in the absence of chemical substance (yeast gene YPR026W): 1.2
